Measurements published in US20240139149A1, “THERAPEUTIC USES OF UROLITHIN DERIVATIVES” (Vandria SA, priority 2022, published 2024).
“Also recorded” adds a separate entry of the source.

Tests used:
[1] = tested on: CEA-CAR T cells / CEA-expressing human CRC organoids; experiment: CEA-CAR T cells exposed to UA and killing of human CRC organoids; assay type: cell-based
AOM-induced colon tumors = experiment: AOM-induced colorectal tumorigenesis, UA-containing diet; assay type: in vivo, mouse; conditions: FVB mice
Excerpt: Urolithin A containing diet (2.28 g/kg) or AIN− 93G control food (Brogaarden) were given ad libitum once introduced for experimental purpose at the indicated time. Animal experiments were approved by the Regierungsprasidium Darmstadt under animal application numbers F123/1009; F123/1062 and F123/2008.
Colorectal tumors were induced by 6 consecutive weekly injections of AOM on mice fed with food containing 2.28 g/kg Urolithin A (UA diet) or with control food. The diet was introduced one-week prior the first AOM injection and maintained until the end of the experiment at ˜20-24 weeks. The colons were collected for subsequent histological analysis as described below. For subcutaneous colorectal cancers, APTK organoids were mechanistically disrupted, incubated with Accutase to generate a single cell suspension and reconstituted in PBS 20% Matrigel (Corning) for subcutaneous transplantation. Tumor sizes were measured at the indicated time after transplantation and tumor volume quantified as ½(width2×length). Urolithin A or control food regiment were initiated either one week before tumor challenge or 11 days after tumor development. Therapeutic diets were maintained throughout the experiment unless indicated otherwise. […] CD8-depleting antibodies (InvivoMab anti-mouse CD8; Hoelzel; BE0061) or isotype controls (InvivoMab rat IgG2b isotyp; Hoelzel; BE0090) were applied every three days, starting at five days after tumor initiation. To study combination efficacy with immunotherapy, mice were injected i.p. with 100 μl nVivoMAb anti-mouse PD-1 (Hoelzel; BE0146) and InVivoMab mouse IgG2b isotype control (Hoelzel; BE0086) every 2 days, starting three days after tumor injection.
For histological analysis of colon tissue, colons were paraffin embedded using the “swiss roll” technique and serially sectioned at […]. […] AOM tumor lesion size and incidence were quantified using Aperio ImageScope software.

[2] = tested on: aged mice injected with Aβ1-42; experiment: Mouse model of Alzheimer's disease, intrahippocampal injection of Aβ1-42 oligomers; assay type: in vivo
Protocol: A total of 18-month-old C57BL6 male mice were included in the study (n=12 per group). The animals were housed up to 4 to a cage, in clear polycarbonate cages with a stainless steel mesh lid and floor in a day/night inversed cycle (12 h/12 h). Drinking water and food were supplied ad libitum to each cage. The animals were kept for a period of acclimation of a minimum of 5 days before any handling.
All mice were subjected to surgery and were injected with 2 μL of vehicle or of A 1-42 solution. Aβ1-42 peptide (Bachem) was dissolved in the vehicle, at an initial concentration of 100 μM (the mother preparation was characterized by automatic WB, and precisely contained 15% of AβO). This solution was gently agitated for 3 days at 37° C. in the dark before any use until the day of the surgery.
The Aβ1-42 preparation was bilaterally injected into the […] of the CA1 area of the hippocampus (at three different depths). A total of 2 μL/side of A 1-42 preparation (100 μM), or vehicle, were bilaterally injected with a Hamilton syringe in the CA1 area of the hippocampus (0.2 μL/min with an Elite Nanomite syringe pump).
Vehicle (0.5% carboxy methyl cellulose (CMC)) or 33 at 1 mg/kg/d was administrated daily by gavage (per os: p.o). The treatment started 1 day after the surgery (D+1) and lasted until the end of the study (D+27). The study was stopped 4 weeks after the surgery (on D28).
The week before the surgery, a training session was performed, for habituation (5 minutes) to the maze. Fourteen (14) days after the surgery, mice were tested for short-term memory deficit in the Y-maze test.
The test was based on two trials: • Trial 1. Mice were allowed to freely explore two arms of the Y-maze during 5 min. The third arm remained closed during the trial. At the end of the 5 min, the animal was placed for 3 min in an empty cage. The Y-maze was cleaned with acetic acid to neutralize odors. • Trial 2. Mice were then allowed to freely explore the three arms of the Y-maze during 5 min. This trial corresponds to the test session.
Both trials were recorded by a video camera using Ethovision system (Noldus). The following items were automatically recorded: a) total distance in the Y-maze and b) the time spent in each arm.
At the end of the experiment (on day 28), 5 mice per group were deeply anesthetized and plasma samples were collected. Mice were then perfused with cold PBS (3 minutes), and cold paraformaldehyde (PFA) 4% in PBS (for 3 minutes).
Six (n=6) brain sections per animal were processed and incubated for 24 hours at 4° C. or 2 hours at room temperature with selected antibodies (Abs). The following antibodies were used: • NeuN: Rabbit polyclonal antibody anti-NeuN (1/1000). • Iba1: Rabbit polyclonal antibody anti-Iba1 (1/500). • Tau phospho Ser212/Thr214 (AT100): Mouse monoclonal antibody anti-AT100 (1/200).
Images were acquired with a confocal microscope LSM 900 with Zen software at 20× magnification (Zeiss) using the same acquisition parameters (automatic acquisition). […] The following read-outs were measured: • Number of NeuN positive pyramidal cells in the CA1 area. • Activation of Iba1-positive microglial cells in the CA1 area. • Activation of AT100 positive neurons in the CA1 area.
Results were analyzed using GraphPad Prism software version 8.0.2. *p<0.05 after a One-way or Two-way ANOVA followed by Fisher's test was considered significant.

[3] = AOM weekly for six weeks, oral UA diet 2.28 g/kg vs control diet

Structure (SMILES) | killing of CEA-expressing human CRC organoids ([1]; 72 h co-culture) | CAR TSCM formation in CEA-specific CAR-T cells ([1]; UA applied to previously frozen CAR-T cells) | tumor incidence (AOM-induced colon tumors; [3]) | tumor size (AOM-induced colon tumors; [3]) | infiltration of CD3+ T cells into the colonic mucosa (AOM-induced colon tumors; AOM, oral UA diet 2.28 g/kg) | short-term spatial memory (time in new arm, Y-maze) ([2]; 1 mg/kg daily oral, 14 days post-surgery) | AT100 (hyperphosphorylated Tau) in neurons ([2]; 1 mg/kg daily, day 1 to day 28) | activation of Iba1(+) microglial cells ([2]; 1 mg/kg daily, day 1 to day 28) | survival of NeuN(+) neurons in CA1 ([2]; 1 mg/kg daily, day 1 to day 28) | total distance traveled in Y-maze ([2]; 1 mg/kg/d p.o., 14 days post-surgery)
O=c1oc2cc(O)ccc2c2ccc(O)cc12 [UA, Urolithin A] | comparable killing efficacy | strongly enhanced | significant decrease | significant decrease | increased infiltration |  |  |  |  | 
O=c1oc2cc(O)ccc2c2ccc(OC3CCOCC3)cc12 [compound 33, 3-hydroxy-8-((tetrahydro-2H-pyran-4-yl)oxy)-6H-benzo[c]chromen-6-one] |  |  |  |  |  | able to prevent; also recorded: beneficial effects | decrease | significantly decrease | significantly improved | not different between groups
